We go through 3 molecules from patent publication EP1650209A1, “Griseusin derivatives and their use as antitumor agents” (Oncotest GmbH, priority 2004, dated 2006).

Common to all, as to assay: Proliferation inhibition of cancer cells (propidium iodide fluorescence)
Common to all, as to type: cell-based, human

The test system of test [1] is RXF 486L. As to conditions: Homo sapiens, 96 h, RXF 486L cell line, 4 days, read-out: IC50 value. How it is done:
(§1) Using various human cancer cells in vitro, the concentrations of the test compounds (A, B, C, D, E, F), which inhibit the proliferation of cancer cells by 50% (IC50) and 70% (IC70) were determined. Specifically, each cell line of bladder cancer (BXF 1218L and T-24), glioblastoma (CNXF 498NL), colic cancer (HCT-116 and HT-29), gastric cancer (GXF 251 L), head and neck cancer (HNXF 536L), non small cell lung cancer (LXF 1121L, LXF 289L, LXF 526L, LXF 529L, LXF 629L and H-460), mammary cancer (MAXF 401NL, MCF-7, MDA-231 and MDA-468), melanoma (MEXF 276L, MEXF 394NL, MEXF 462NL, MEXF 514L and MEXF 520L), ovary cancer (OVXF 1619L, OVXF 899L and OVCAR-3), pancreatic cancer (PAXF 1657L and PANC-1), prostate cancer (22Rv1, DU-145, LNCaP and PC3M), pleuramesothelioma (PXF 1752L), renal cancer (RXF 1781 L, RXF 393NL, RXF 486L and RXF 944L), and uterine cancer (UXF 1138L) is added to a 96-well microtiter plate at a density of 3.6-11.2x10^3 cells per well in RPMI-1640 medium containing 10% fetal calf serum and 0.1% gentamicin and incubated for 24 hours. After 24 hours RPMI-1640 medium containing 10% fetal calf serum and 0.1% gentamicin, together with a test compound, is added thereto. Then, this plate is incubated at 37°C for 4 days in a humidified atmosphere of air containing 5% CO2. Thereafter, the cell culture medium with or without drug was replaced by 200 µl of an aqueous PI solution (7 µg/ml propidium iodide). Applying a freeze thaw cycle to permeabilize intact cell walls, staining of DNA was achieved, and the fluorescence of each well was measured using the Cy-tofluor 4000 microplate reader (excitation 530 nm, emission 620 nm), giving a direct relationship to the total cell number. Proliferation inhibition is expressed as test versus untreated control (T/C-value [%]). IC50 and IC70 values were determined by plotting compound concentration versus cell viability.

Test [2] deals with LXFL 529L. As to conditions: Homo sapiens, 96 h, LXFL 529L cell line, 4 days, read-out: IC50 value. How it is done:
as §1

The test system of test [3] is UXF 1138L. Particulars: Homo sapiens, 96 h, UXF 1138L cell line, 4 days, read-out: IC50 value. How it is done: as §1
The test system of test [4] is MAXF 401NL. As to conditions: Homo sapiens, 96 h, MAXF 401NL cell line, 4 days, read-out: IC50 value. How it is done: as §1
The subject of test [5] is MEXF 462NL. As to conditions: Homo sapiens, 96 h, MEXF 462NL cell line, 4 days, read-out: IC50 value. As to the method:
as §1

In test [6] the test system is GXF 251 L. Particulars: Homo sapiens, 96 h, GXF 251L cell line, 4 days, read-out: IC50 value. As to the method: as §1

Values after ≈ are worked out from the molar mass of the structure shown.

For orientation: IC50 means the concentration needed to halve the response being measured.

Turning to `CC1CC(O)C(O)C2(O1)OC1CC(=O)OC1C1=C2C(=O)c2c(O)cccc2C1=O` (stereo not drawn) [Compound A, deacetylgriseusin A, reference compound], the half-inhibitory concentration (IC50) in test [1] was found to be 1.11 µg/mL (≈ 2.77 µM); in test [2], 8.95 µg/mL (≈ 22.2 µM); in test [3], 8.08 µg/mL (≈ 20.1 µM); in test [4], 0.345 µg/mL (≈ 0.857 µM); in test [5], 1.13 µg/mL (≈ 2.8 µM); in test [6] it was 3.06 µg/mL (≈ 7.62 µM).
As to `COC(=O)CC1OC2(OC(C)CC(=O)C2O)C2=C(C(=O)c3cccc(O)c3C2=O)C1O` (stereo not drawn) [Compound F, 4'-dehydro-4-hydroxy-deacetylgriseusin B methylester], the IC50 in test [1] stood at 0.053 µg/mL (≈ 0.123 µM); in test [2] it was 0.158 µg/mL (≈ 0.365 µM); in test [3] it was 0.302 µg/mL (≈ 0.698 µM); in test [4] it was 0.034 µg/mL (≈ 0.0786 µM); in test [5] it was 0.029 µg/mL (≈ 0.0671 µM); in test [6], 0.037 µg/mL (≈ 0.0856 µM).
On to `COC(=O)CC1OC2(OC(C)CC(O)C2O)C2=C(C(=O)c3cccc(O)c3C2=O)C1O` (stereo not drawn) [Compound E, 4-hydroxy-deacetylgriseusin B methylester], for which the IC50 in test [1] is 0.288 µg/mL (≈ 0.663 µM); in test [2], 3.87 µg/mL (≈ 8.9 µM); in test [3], 0.377 µg/mL (≈ 0.868 µM); in test [4] it was 0.046 µg/mL (≈ 0.106 µM); in test [5], 0.094 µg/mL (≈ 0.216 µM); in test [6], 0.393 µg/mL (≈ 0.905 µM).
